Assay results published in ChEMBL document CHEMBL1201862, “PubChem BioAssay data set” (2004).
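Five concentrations, 48 hours, 96-well plates. GI50 = concentration required for 50% inhibition of growth.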 The source made the active and inactive calls. Cut-off read from the data, not from the text of the source: active = GI50 up to about 1.1 µM and inactive = higher.

Experiments:
Assay in all cases: NCI-60 cell line screen, 48 h
[1] = tested on: RPMI-8226
[2] = tested on: SK-MEL-28
[3] = tested on: SNB-75
[4] = tested on: U-251
[5] = tested on: BT-549
[6] = tested on: SF-539
[7] = tested on: SR
[8] = tested on: ACHN
[9] = tested on: HOP-62
[10] = tested on: UO-31
[11] = tested on: CAKI-1
[12] = tested on: MDA-N
[13] = tested on: M14
[14] = tested on: MOLT-4
[15] = tested on: NCI-H23
[16] = tested on: SNB-19
[17] = tested on: UACC-62
[18] = tested on: SK-MEL-5
[19] = tested on: SK-MEL-2
[20] = tested on: CCRF-CEM
[21] = tested on: NCI-H460
[22] = tested on: DU-145
[23] = tested on: MCF7
[24] = tested on: HCC 2998
[25] = tested on: HOP-92
[26] = tested on: RXF 393
[27] = tested on: A549
[28] = tested on: HCT-116
[29] = tested on: NCI-H226
[30] = tested on: SF-268
[31] = tested on: NCI/ADR-RES
[32] = tested on: KM12
[33] = tested on: COLO 205
[34] = tested on: T47D
[35] = tested on: SW-620
[36] = tested on: TK-10
[37] = tested on: HT-29
[38] = tested on: OVCAR-5
[39] = tested on: MDA-MB-435
[40] = tested on: PC-3
[41] = tested on: EKVX
[42] = tested on: OVCAR-8
[43] = tested on: IGROV-1
[44] = tested on: SN12C
[45] = tested on: SF-295
[46] = tested on: LOX IMVI
[47] = tested on: A498
[48] = tested on: K562
[49] = tested on: HCT-15
[50] = tested on: UACC-257
[51] = tested on: MDA-MB-231
[52] = tested on: OVCAR-3
[53] = tested on: 786-0
[54] = tested on: OVCAR-4
[55] = tested on: Hs-578T
[56] = tested on: SK-OV-3
[57] = tested on: NCI-H522
[58] = tested on: Malme-3M
[59] = tested on: HL-60

COC(=O)/C=C1\C(CO[Si](C)(C)C(C)(C)C)OC(n2ccc(=O)[nH]c2=O)C1O (configuration not stated)
GI50 [1]: 6.07 µM (inactive)
GI50 [2]: 6.25 µM (inactive)
GI50 [3]: 12.1 µM (inactive)
GI50 [4]: 7.8 µM (inactive)
GI50 [5]: 18.7 µM (inactive)
GI50 [6]: 15.5 µM (inactive)
GI50 [7]: 6.98 µM (inactive)
GI50 [8]: 12.6 µM (inactive)
GI50 [9]: 13.2 µM (inactive)
GI50 [10]: 9.89 µM (inactive)
GI50 [11]: 22.6 µM (inactive)
GI50 [12]: 7.67 µM (inactive)
GI50 [13]: 17.5 µM (inactive)
GI50 [14]: 8.49 µM (inactive)
GI50 [15]: 7.08 µM (inactive)
GI50 [16]: 18.5 µM (inactive)
GI50 [17]: 13.7 µM (inactive)
GI50 [18]: 6.28 µM (inactive)
GI50 [19]: 6.25 µM (inactive)
GI50 [20]: 6.27 µM (inactive)
GI50 [21]: 5.9 µM (inactive)
GI50 [22]: 7.06 µM (inactive)
GI50 [23]: 4.91 µM (inactive)
GI50 [24]: 7.71 µM (inactive)
GI50 [25]: 15.2 µM (inactive)
GI50 [26]: 9.84 µM (inactive)
GI50 [27]: 6.35 µM (inactive)
GI50 [28]: 4.4 µM (inactive)
GI50 [29]: 5.58 µM (inactive)
GI50 [30]: 0.367 µM (active)
GI50 [31]: 10.4 µM (inactive)
GI50 [32]: 7.06 µM (inactive)
GI50 [33]: 4.26 µM (inactive)
GI50 [34]: 3.63 µM (inactive)
GI50 [35]: 9.73 µM (inactive)
GI50 [36]: 24.2 µM (inactive)
GI50 [37]: 7.33 µM (inactive)
GI50 [38]: 16.5 µM (inactive)
GI50 [39]: 8.13 µM (inactive)
GI50 [40]: 3.47 µM (inactive)
GI50 [41]: 8.63 µM (inactive)
GI50 [42]: 8.95 µM (inactive)
GI50 [43]: 20 µM (inactive)
GI50 [44]: 8.57 µM (inactive)
GI50 [45]: 9.82 µM (inactive)
GI50 [46]: 6.41 µM (inactive)
GI50 [47]: 17.5 µM (inactive)
GI50 [48]: 5.4 µM (inactive)
GI50 [49]: 6.71 µM
GI50 [50]: 4.73 µM (inactive)
GI50 [51]: 34.5 µM (inactive)
GI50 [52]: 21.6 µM (inactive)
GI50 [53]: 6.04 µM (inactive)
GI50 [54]: 15 µM (inactive)

Cn1c(=O)c2c(n(C)c1=O)n1c(=O)c3ccccc3nc1n2C
GI50 [1]: > 100 µM (inactive)
GI50 [2]: > 100 µM (inactive)
GI50 [3]: 39.4 µM (inactive)
GI50 [4]: 83.6 µM (inactive)
GI50 [5]: > 100 µM (inactive)
GI50 [6]: > 100 µM (inactive)
GI50 [7]: 0.0237 µM (active)
GI50 [8]: > 100 µM (inactive)
GI50 [9]: 39.9 µM (inactive)
GI50 [10]: > 100 µM (inactive)
GI50 [11]: > 100 µM (inactive)
GI50 [13]: > 100 µM (inactive)
GI50 [14]: > 100 µM (inactive)
GI50 [15]: > 100 µM (inactive)
GI50 [16]: > 100 µM (inactive)
GI50 [17]: 46.9 µM (inactive)
GI50 [55]: 59.4 µM (inactive)
GI50 [18]: > 100 µM (inactive)
GI50 [19]: > 100 µM (inactive)
GI50 [20]: > 100 µM (inactive)
GI50 [22]: > 100 µM (inactive)
GI50 [23]: > 100 µM (inactive)
GI50 [24]: > 100 µM (inactive)
GI50 [25]: > 100 µM (inactive)
GI50 [26]: > 100 µM (inactive)
GI50 [27]: > 100 µM (inactive)
GI50 [28]: > 100 µM (inactive)
GI50 [29]: 30.7 µM (inactive)
GI50 [30]: 72.3 µM (inactive)
GI50 [31]: > 100 µM (inactive)
GI50 [32]: > 100 µM (inactive)
GI50 [33]: > 100 µM (inactive)
GI50 [34]: > 100 µM (inactive)
GI50 [35]: > 100 µM (inactive)
GI50 [36]: > 100 µM (inactive)
GI50 [37]: > 100 µM (inactive)
GI50 [38]: > 100 µM (inactive)
GI50 [39]: > 100 µM (inactive)
GI50 [40]: > 100 µM (inactive)
GI50 [41]: > 100 µM (inactive)
GI50 [42]: 97.9 µM (inactive)
GI50 [43]: > 100 µM (inactive)
GI50 [56]: > 100 µM (inactive)
GI50 [44]: > 100 µM (inactive)
GI50 [45]: 38 µM (inactive)
GI50 [46]: 83.9 µM (inactive)
GI50 [47]: > 100 µM (inactive)
GI50 [48]: > 100 µM (inactive)
GI50 [49]: > 100 µM
GI50 [50]: > 100 µM (inactive)
GI50 [57]: 90.4 µM (inactive)
GI50 [51]: > 100 µM (inactive)
GI50 [52]: > 100 µM (inactive)
GI50 [53]: 82.2 µM (inactive)
GI50 [54]: > 100 µM (inactive)

CC(CCC(=O)O)[C@H]1CCC2[C@H]3C(CC(=O)[C@@]21C)[C@@]1(C)CCC(O)C[C@H]1C[C@@H]3O (some centres not stated)
GI50 [1]: > 100 µM (inactive)
GI50 [2]: > 100 µM (inactive)
GI50 [3]: > 100 µM (inactive)
GI50 [4]: > 100 µM (inactive)
GI50 [5]: > 100 µM (inactive)
GI50 [6]: > 100 µM (inactive)
GI50 [7]: > 100 µM (inactive)
GI50 [58]: > 100 µM (inactive)
GI50 [8]: > 100 µM (inactive)
GI50 [9]: > 100 µM (inactive)
GI50 [10]: > 100 µM (inactive)
GI50 [11]: > 100 µM (inactive)
GI50 [12]: > 100 µM (inactive)
GI50 [13]: > 100 µM (inactive)
GI50 [14]: > 100 µM (inactive)
GI50 [15]: > 100 µM (inactive)
GI50 [16]: > 100 µM (inactive)
GI50 [17]: > 100 µM (inactive)
GI50 [19]: > 100 µM (inactive)
GI50 [20]: > 100 µM (inactive)
GI50 [21]: > 100 µM (inactive)
GI50 [22]: > 100 µM (inactive)
GI50 [23]: > 100 µM (inactive)
GI50 [24]: > 100 µM (inactive)
GI50 [25]: > 100 µM (inactive)
GI50 [26]: > 100 µM (inactive)
GI50 [27]: > 100 µM (inactive)
GI50 [28]: > 100 µM (inactive)
GI50 [29]: > 100 µM (inactive)
GI50 [30]: > 100 µM (inactive)
GI50 [31]: > 100 µM (inactive)
GI50 [32]: > 100 µM (inactive)
GI50 [33]: > 100 µM (inactive)
GI50 [34]: > 100 µM (inactive)
GI50 [35]: > 100 µM (inactive)
GI50 [37]: > 100 µM (inactive)
GI50 [38]: > 100 µM (inactive)
GI50 [39]: > 100 µM (inactive)
GI50 [40]: > 100 µM (inactive)
GI50 [41]: > 100 µM (inactive)
GI50 [42]: > 100 µM (inactive)
GI50 [43]: > 100 µM (inactive)
GI50 [44]: > 100 µM (inactive)
GI50 [46]: > 100 µM (inactive)
GI50 [47]: > 100 µM (inactive)
GI50 [48]: > 100 µM (inactive)
GI50 [49]: > 100 µM
GI50 [50]: > 100 µM (inactive)
GI50 [57]: > 100 µM (inactive)
GI50 [59]: > 100 µM (inactive)
GI50 [51]: > 100 µM (inactive)
GI50 [53]: > 100 µM (inactive)
GI50 [54]: > 100 µM (inactive)
